Results as given in article PMC3394710, “Insight into Temperature Dependence of GTPase Activity in Human Guanylate Binding Protein-1” (PLoS ONE, 2012).
Positions count from the first letter of the chain named.

How the values were obtained:
Experiment in all cases: thermal denaturation, tryptophan fluorescence
[1] = biological target: T1, human guanylate binding protein-1 (hGBP1, wild type whGBP1) (Homo sapiens, UniProt P32455); settings: 0.5 µM protein, 20 mM Tris-HCl pH 7.5, 100 mM KCl, 5 mM MgCl2, Tm of free protein in the 2nd table, row 6
T1 construct: gene GBP1; purified as in earlier work
T1 sequence (P32455 1-592): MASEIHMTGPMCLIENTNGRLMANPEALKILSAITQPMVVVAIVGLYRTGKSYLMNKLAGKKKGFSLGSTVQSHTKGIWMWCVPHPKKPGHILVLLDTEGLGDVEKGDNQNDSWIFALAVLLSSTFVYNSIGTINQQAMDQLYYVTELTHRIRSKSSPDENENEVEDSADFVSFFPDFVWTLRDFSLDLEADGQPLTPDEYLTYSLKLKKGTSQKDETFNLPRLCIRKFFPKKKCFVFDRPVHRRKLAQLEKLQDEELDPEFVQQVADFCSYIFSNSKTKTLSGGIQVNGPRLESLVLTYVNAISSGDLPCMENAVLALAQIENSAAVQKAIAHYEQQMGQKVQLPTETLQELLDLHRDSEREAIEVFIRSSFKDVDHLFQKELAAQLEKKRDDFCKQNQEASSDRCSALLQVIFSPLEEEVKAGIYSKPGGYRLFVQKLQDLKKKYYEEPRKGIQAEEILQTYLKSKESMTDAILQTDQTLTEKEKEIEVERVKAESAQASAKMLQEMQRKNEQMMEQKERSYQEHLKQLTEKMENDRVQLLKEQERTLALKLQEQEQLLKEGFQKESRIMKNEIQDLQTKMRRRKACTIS
Source text: thermal denaturation, tryptophan fluorescence on human guanylate binding protein-1 (hGBP1, wild type whGBP1)

[2] = biological target: T2, human guanylate binding protein-1 (hGBP1, wild type whGBP1) (Homo sapiens, UniProt P32455, S157A); settings: 37 °C; 5 mM MgCl2, 100 mM KCl, pH 7.5; ΔCp assumed as in wild type
T2 construct: gene GBP1; purified as in earlier work
T2 sequence (P32455 1-592 S157A): T1 sequence (P32455 1-592) with S157A

[3] = biological target: T3, human guanylate binding protein-1 (hGBP1, wild type whGBP1) (Homo sapiens, UniProt P32455, E313A); settings: 37 °C; 5 mM MgCl2, 100 mM KCl, pH 7.5; ΔCp assumed as in wild type
T3 construct: gene GBP1; purified as in earlier work
T3 sequence (P32455 1-592 E313A): T1 sequence (P32455 1-592) with E313A

| Heat-induced unfolding / T m / (K) ([1]; 500 µM GDP) | difference in ΔG D between analogue free and bound protein [2] [kcal/mol] | difference in ΔG D between analogue free and bound protein [3] [kcal/mol] | Heat-induced unfolding / T m / (K) ([1]; 100 µM GppNHp) | Compound |
| --- | --- | --- | --- | --- |
| 319.9 ± 0.4 | – | – | – | Nc1nc2c(ncn2[C@@H]2O[C@H](COP(=O)(O)OP(=O)(O)O)[C@@H](O)[C@H]2O)c(=O)[nH]1 [GDP] |
| – | 0.9 | 2.4 | 325.2 ± 0.2 | Nc1nc2c(ncn2[C@@H]2O[C@H](COP(=O)(O)OP(=O)(O)NP(=O)(O)O)[C@@H](O)[C@H]2O)c(=O)[nH]1 [GppNHp] |
